From ChEMBL document CHEMBL3044696, “Synthesis, antimalarial-, and antibacterial activity evaluation of some new 4-aminoquinoline derivatives” (2013)

How the values were obtained:
[1] = tested on: Bacillus cereus; assay: Antibacterial activity against Bacillus cereus ATCC 10876 assessed as growth inhibition at 25 ug/disk after 24 hr by Kirby-Bauer disk diffusion method; assay type: functional; details: ATCC 10876, 24 h, read-out: DIZ
[2] = tested on: Bacillus subtilis; assay: Antibacterial activity against Bacillus subtilis ATCC 11774 assessed as growth inhibition at 25 ug/disk after 24 hr by Kirby-Bauer disk diffusion method; assay type: functional; details: ATCC 11774, 24 h, read-out: DIZ
[3] = tested on: Bacillus subtilis; assay: Antibacterial activity against Bacillus subtilis ATCC 11774 assessed as growth inhibition at 50 ug/disk after 24 hr by Kirby-Bauer disk diffusion method; assay type: functional; details: ATCC 11774, 24 h, read-out: DIZ
[4] = tested on: Plasmodium falciparum; assay: Antimalarial activity against chloroquine-sensitive Plasmodium falciparum 3D7 infected human RBC assessed as dead ring and trophozoite stage of parasite at 50 ug/mL after 40 hr by Giemsa staining-based light microscopic analysis relative to control; assay type: functional
[5] = tested on: Pseudomonas aeruginosa; assay: Antibacterial activity against Pseudomonas aeruginosa ATCC 10662 assessed as growth inhibition at 25 ug/disk after 24 hr by Kirby-Bauer disk diffusion method; assay type: functional; details: ATCC 10662, 24 h, read-out: DIZ
[6] = tested on: Klebsiella pneumoniae; assay: Antibacterial activity against Klebsiella pneumoniae ATCC 33495 assessed as growth inhibition at 25 ug/disk after 24 hr by Kirby-Bauer disk diffusion method; assay type: functional; details: ATCC 33495, 24 h, read-out: DIZ
[7] = tested on: Escherichia coli; assay: Antibacterial activity against Escherichia coli ATCC 10536 assessed as growth inhibition at 25 ug/disk after 24 hr by Kirby-Bauer disk diffusion method; assay type: functional; details: ATCC 10536, 24 h, read-out: DIZ
[8] = tested on: Staphylococcus aureus; assay: Antibacterial activity against Staphylococcus aureus ATCC BAA 1026 assessed as growth inhibition at 25 ug/disk after 24 hr by Kirby-Bauer disk diffusion method; assay type: functional; details: ATCC BAA 1026, 24 h, read-out: DIZ
[9] = tested on: Klebsiella pneumoniae; assay: Antibacterial activity against Klebsiella pneumoniae ATCC 33495 assessed as growth inhibition at 50 ug/disk after 24 hr by Kirby-Bauer disk diffusion method; assay type: functional; details: ATCC 33495, 24 h, read-out: DIZ
[10] = tested on: Staphylococcus aureus; assay: Antibacterial activity against Staphylococcus aureus ATCC BAA 1026 assessed as growth inhibition at 50 ug/disk after 24 hr by Kirby-Bauer disk diffusion method; assay type: functional; details: ATCC BAA 1026, 24 h, read-out: DIZ
[11] = tested on: Escherichia coli; assay: Antibacterial activity against Escherichia coli ATCC 10536 assessed as growth inhibition at 50 ug/disk after 24 hr by Kirby-Bauer disk diffusion method; assay type: functional; details: ATCC 10536, 24 h, read-out: DIZ
[12] = tested on: Pseudomonas aeruginosa; assay: Antibacterial activity against Pseudomonas aeruginosa ATCC 10662 assessed as growth inhibition at 50 ug/disk after 24 hr by Kirby-Bauer disk diffusion method; assay type: functional; details: ATCC 10662, 24 h, read-out: DIZ
[13] = tested on: Plasmodium falciparum; assay: Antimalarial activity against chloroquine-sensitive Plasmodium falciparum 3D7 infected human RBC assessed as dead ring and trophozoite stage of parasite at 0.4 ug/mL after 40 hr by Giemsa staining-based light microscopic analysis relative to control
[14] = tested on: Pseudomonas aeruginosa; assay: Antibacterial activity against Pseudomonas aeruginosa ATCC 10662 assessed as growth inhibition at 5 ug/disk after 24 hr by Kirby-Bauer disk diffusion method; assay type: functional; details: ATCC 10662, 24 h, read-out: DIZ
[15] = tested on: Klebsiella pneumoniae; assay: Antibacterial activity against Klebsiella pneumoniae ATCC 33495 assessed as growth inhibition at 5 ug/disk after 24 hr by Kirby-Bauer disk diffusion method; assay type: functional; details: ATCC 33495, 24 h, read-out: DIZ
[16] = tested on: Escherichia coli; assay: Antibacterial activity against Escherichia coli ATCC 10536 assessed as growth inhibition at 5 ug/disk after 24 hr by Kirby-Bauer disk diffusion method; assay type: functional; details: ATCC 10536, 24 h, read-out: DIZ
[17] = tested on: Staphylococcus aureus; assay: Antibacterial activity against Staphylococcus aureus ATCC BAA 1026 assessed as growth inhibition at 5 ug/disk after 24 hr by Kirby-Bauer disk diffusion method; assay type: functional; details: ATCC BAA 1026, 24 h, read-out: DIZ
[18] = tested on: Bacillus cereus; assay: Antibacterial activity against Bacillus cereus ATCC 10876 assessed as growth inhibition at 5 ug/disk after 24 hr by Kirby-Bauer disk diffusion method; assay type: functional; details: ATCC 10876, 24 h, read-out: DIZ
[19] = tested on: Bacillus subtilis; assay: Antibacterial activity against Bacillus subtilis ATCC 11774 assessed as growth inhibition at 5 ug/disk after 24 hr by Kirby-Bauer disk diffusion method; assay type: functional; details: ATCC 11774, 24 h, read-out: DIZ

| SMILES | zone of inhibition at 25 µg/disc [1] | zone of inhibition at 25 µg/disc [2] | zone of inhibition at 50 µg/disc [3] | Activity [4] | zone of inhibition at 25 µg/disc [5] | zone of inhibition at 25 µg/disc [6] | zone of inhibition at 25 µg/disc [7] | zone of inhibition at 25 µg/disc [8] | zone of inhibition at 50 µg/disc [9] | zone of inhibition at 50 µg/disc [10] | zone of inhibition at 50 µg/disc [11] | zone of inhibition at 50 µg/disc [12] | Activity [13] | zone of inhibition at 5 µg/disc [14] | zone of inhibition at 5 µg/disc [15] | zone of inhibition at 5 µg/disc [16] | zone of inhibition at 5 µg/disc [17] | zone of inhibition at 5 µg/disc [18] | zone of inhibition at 5 µg/disc [19] |
| --- | --- | --- | --- | --- | --- | --- | --- | --- | --- | --- | --- | --- | --- | --- | --- | --- | --- | --- | --- |
| Cc1ccc(C2SCCC(=O)N2CCCNc2ccnc3cc(Cl)ccc23)s1 (centres undefined) | 13.9 mm | 14.2 mm | 23.9 mm | 22% | 13.9 mm | 13.9 mm | 14.2 mm | 14 mm | 23.9 mm | 23.9 mm | – | – | – | – | – | – | – | – | – |
| O=C1CCSC(c2ccccc2F)N1CCCNc1ccnc2cc(Cl)ccc12 (centres undefined) | 14.3 mm | 18.8 mm | – | 39% | 14.1 mm | 14.3 mm | 14.3 mm | 14.2 mm | – | 23.9 mm | – | – | – | – | – | – | – | – | – |
| COc1ccc(C2SCCC(=O)N2CCCNc2ccnc3cc(Cl)ccc23)cc1 (centres undefined) | 14.3 mm | 14.2 mm | 23.3 mm | 32% | 14.3 mm | 14.1 mm | 14.2 mm | 14.1 mm | 24.2 mm | 24.1 mm | 24.4 mm | – | – | – | – | – | – | – | – |
| O=C1CCSC(c2cccc(O)c2)N1CCCNc1ccnc2cc(Cl)ccc12 (centres undefined) | 14.1 mm | 13.8 mm | – | 39.5% | 13.9 mm | 14 mm | 13.9 mm | 14.3 mm | – | – | 24.3 mm | 23.9 mm | – | – | – | – | – | – | – |
| O=C1CCSC(c2ccco2)N1CCCNc1ccnc2cc(Cl)ccc12 (centres undefined) | 14.2 mm | 14.1 mm | 23.5 mm | 38.5% | 13.7 mm | 14.2 mm | 14 mm | 14.3 mm | 24.1 mm | 24.2 mm | 24.1 mm | – | – | – | – | – | – | – | – |
| CCC1SCCC(=O)N1CCCNc1ccnc2cc(Cl)ccc12 (centres undefined) | 13.5 mm | 13.1 mm | 23.2 mm | 18.5% | 13.5 mm | 13.2 mm | 13.7 mm | 12.9 mm | 23.1 mm | 23.1 mm | 23.4 mm | 23.1 mm | – | – | – | – | – | – | – |
| CN(C)c1ccc(C2SCCC(=O)N2CCCNc2ccnc3cc(Cl)ccc23)cc1 (centres undefined) | 14 mm | 14.3 mm | 23.7 mm | 25% | 13.7 mm | 14.1 mm | 14.3 mm | 13.9 mm | 24.1 mm | 23.9 mm | 23.9 mm | – | – | – | – | – | – | – | – |
| CCN(CC)CCCC(C)Nc1ccnc2cc(Cl)ccc12 (centres undefined) [CHLOROQUINE] | – | – | – | – | – | – | – | – | – | – | – | – | 67% | – | – | – | – | – | – |
| CC1COc2c(N3CCN(C)CC3)c(F)cc3c(=O)c(C(=O)O)cn1c23 (centres undefined) [OFLOXACIN] | – | – | – | – | – | – | – | – | – | – | – | – | – | 20.8 mm | 20.3 mm | 21.5 mm | 21.7 mm | 20.3 mm | 20.7 mm |
